Source: patent US12553033B2, “Medium, methods, cells and secreted factors for stem cell culture and therapy” (SanBio, Inc., priority 2016, dated 2026)

Experiments:
[1] = test system: Human bone marrow derived mesenchymal stem cells; experiment: CXCL9 mRNA induction (quantitative real-time PCR) in mesenchymal stem cells, type 2 priming; type: cell-based; conditions: normalized to 18S rRNA
Procedure: Referring to FIG. 3A and FIG. 3B, Type 2 mesenchymal stem cell priming by TLR3 is further enhanced with Acetylcholine (ACH), Glutamate (GLU), and Lipoxin A4 (LAX4). Human bone marrow derived mesenchymal stem cells were induced into type 2 mesenchymal cells using poly(I:C) and 0.5 ng/ml of human recombinant erythropoictin. Total RNA was isolated, purified, and reverse transcribed to cDNA. Quantitative real-time PCR was carried out using SYBR Green Master Mix. Data were analyzed using the quantitative comparative CT method, normalizing target gene expression to the 18S rRNA housekeeping gene, and shown as fold increase over the untreated control. […] Error bars represent +/− the standard error of the mean (SEM).

[2] = test system: Human bone marrow derived mesenchymal stem cells; experiment: TNFSF10 (TRAIL) mRNA induction (quantitative real-time PCR) in mesenchymal stem cells, type 1 priming; type: cell-based; conditions: normalized to 18S rRNA
Procedure: Referring to FIG. 4A and FIG. 4B, Type 1 mesenchymal stem cell priming by TLR4 is further enhanced with leukotriene B4 (LTB4), serotonin (5-HT), melatonin (MEL). Human bone marrow derived mesenchymal stem cells were induced into type 1 mesenchymal stem cells using lipopolysaccharide (LPS) and 0.5 ng/ml of human recombinant erythropoietin. Total RNA was isolated, purified, and reverse transcribed to cDNA. Quantitative real-time PCR was carried out using SYBR Green Master Mix. Data were analyzed using the quantitative comparative CT method, normalizing target gene expression to the 18S rRNA housekeeping gene, and shown as fold increase over the untreated control. […] Error bars represent +/− the standard error of the mean (SEM). […] TLR4 (approx. 425,854-fold FIG. 4A; approx. 7,567-fold FIG. 4B), LTB4 (approx. 49-fold FIG. 4A; approx. 49-fold FIG. 4B), 5-HT (approx. 333-fold FIG. 4B), or MEL (approx. 489-fold FIG. 4B).

CC(=O)OCC[N+](C)(C)C [ACH, Acetylcholine]
CXCL9 gene expression, fold increase over the untreated control ([1]; FIG. 3A experiment): approx. 3.7 fold | CXCL9 gene expression, fold increase over the untreated control ([1]; FIG. 3B experiment): approx. 20 fold

N[C@@H](CCC(=O)O)C(=O)O [GLU, Glutamate]
CXCL9 gene expression, fold increase over the untreated control ([1]; FIG. 3A experiment): approx. 1.4 fold | CXCL9 gene expression, fold increase over the untreated control ([1]; FIG. 3B experiment): approx. 16 fold

COc1ccc2[nH]cc(CCNC(C)=O)c2c1 [MEL, melatonin]
TNFSF10 (TRAIL) gene expression, fold increase over the untreated control ([2]; FIG. 4B experiment): approx. 489 fold

poly(I:C) [TLR3]
CXCL9 gene expression, fold increase over the untreated control ([1]; FIG. 3A experiment): approx. 8.8 fold | CXCL9 gene expression, fold increase over the untreated control ([1]; FIG. 3B experiment): approx. 22 fold

CCCCC/C=C\C[C@@H](O)/C=C/C=C/C=C\[C@@H](O)CCCC(=O)O [LTB4, leukotriene B4]
TNFSF10 (TRAIL) gene expression, fold increase over the untreated control ([2]; FIG. 4A experiment): approx. 49 fold | TNFSF10 (TRAIL) gene expression, fold increase over the untreated control ([2]; FIG. 4B experiment): approx. 49 fold

CCCCC[C@H](O)/C=C/C=C\C=C\C=C\[C@@H](O)[C@@H](O)CCCC(=O)O [LAX4, Lipoxin A4]
CXCL9 gene expression, fold increase over the untreated control ([1]; FIG. 3A experiment): approx. −2 fold | CXCL9 gene expression, fold increase over the untreated control ([1]; FIG. 3B experiment): approx. 13 fold

NCCc1c[nH]c2ccc(O)cc12 [5-HT, serotonin]
TNFSF10 (TRAIL) gene expression, fold increase over the untreated control ([2]; FIG. 4B experiment): approx. 333 fold
